Laboratory results from patent publication US20240270679A1, “LIPIDS FOR USE IN LIPID NANOPARTICLE FORMULATIONS” (Acuitas Therapeutics, Inc., priority 2022, published 2024).

How the values were obtained:
[1] = Determination of pKa of formulated lipids (TNS fluorescence assay in lipid nanoparticles); format: physicochemical; conditions: lipid nanoparticles (compound/DSPC/cholesterol/PEG-lipid), lipid formulated in LNP (cationic lipid/DSPC/cholesterol/PEG-lipid), pH of half-maximal fluorescence
Procedure: As described elsewhere, the pKa of formulated lipids is correlated with the effectiveness of LNPs for delivery of nucleic acids (see Jayaraman et al, Angewandte Chemie, International Edition (2012), 51(34), 8529-8533; Semple et al, Nature Biotechnology 28, 172-176 (2010)). In some embodiments, the preferred range of pKa is ˜5 to ˜7. The pKa of each lipid is determined in lipid nanoparticles using an assay based on fluorescence of 2-(p-toluidino)-6-napthalene sulfonic acid (TNS). Lipid nanoparticles comprising compound of structure (I)/DSPC/cholesterol/PEG-lipid (50/10/38.5/1.5 or 47.5:10:40.7:1.8 mol %) in PBS at a concentration of 0.4 mM total lipid are prepared using the in-line process as described in Example 1. TNS is prepared as a 100 μM stock solution in distilled water. Vesicles are diluted to 24 μM lipid in 2 mL of buffered solutions containing 10 mM HEPES, 10 mM MES, 10 mM ammonium acetate, and 130 mM NaCl, where the pH ranged from 2.5 to 11. An aliquot of the TNS solution is added to give a final concentration of 1 μM and following vortex mixing fluorescence intensity is measured at room temperature in a SLM Aminco Series 2 Luminescence Spectrophotometer using excitation and emission wavelengths of 321 nm and 445 nm. A sigmoidal best fit analysis is applied to the fluorescence data and the pKa is measured as the pH giving rise to half-maximal fluorescence intensity.

human IgG in mouse serum = assay: Immunoglobulin G (IgG) mRNA in vivo evaluation using lipid nanoparticle compositions (human IgG ELISA); design: species or system mice; conditions: tail vein injection, μg IgG/mL serum 24 hours after administration; for Serum IgG @ 0.3 mg/kg: 0.3 mg mRNA/kg; for Serum IgG @ 1.0 mg/kg: 1.0 mg mRNA/kg
Procedure: A lipid of structure (I), DSPC, cholesterol and PEG-lipid are solubilized in ethanol at a molar ratio of 50:10:38.5:1.5 or 47.5:10:40.7:1.8. Lipid nanoparticles (LNP) are prepared at a total lipid to mRNA weight ratio of approximately 10:1 to 40:1. Briefly, the mRNA is diluted to 0.2 mg/mL in 10 to 50 mM citrate buffer, pH 4 or 10 to 25 mM acetate buffer, pH 4. Syringe pumps are used to mix the ethanolic lipid solution with the mRNA aqueous solution at a ratio of about 1:5 to 1:3 (vol/vol) with total flow rates above 15 mL/min. The ethanol is then removed, and the external buffer replaced with PBS by dialysis. Finally, the lipid nanoparticles are filtered through a 0.2 µm pore sterile filter.
Studies are performed in 6-8-week-old CD-1/ICR mice (Envigo) according to guidelines established by an institutional animal care committee (ACC) and the Canadian Council on Animal Care (CCAC). Varying doses of mRNA-lipid nanoparticle are systemically administered by tail vein injection and animals euthanized at a specific time point (e.g., 24 hours) post-administration. The whole blood is collected, and the serum subsequentially separated by centrifuging the tubes of the whole blood at 2000×g for 10 minutes at 4° C. and stored at −80° C. until use for analysis.
For immunoglobulin G (IgG) ELISA (Life Diagnostics Human IgG ELISA kit), the serum samples are diluted at 100 to 15000 folds with 1× diluent solution. 100 μL of diluted serum is dispensed into anti-human IgG coated 96-well plate in duplicate alongside human IgG standards and incubated in a plate shaker at 150 rpm at 25° C. for 45 minutes. The wells are washed 5 times with 1× wash solution using a plate washer (400 μL/well). 100 μL of HRP conjugate is added into each well and incubated in a plate shaker at the same condition above. The wells are washed 5 times again with 1× wash solution using a plate washer (400 μL/well). 100 μL of TMB reagent is added into each well and incubated in a plate shaker at the same condition above. The reaction is stopped by adding 100 μL of Stop solution to each well. The absorbance is read at 450 nm (A450) with a microplate reader. The amount of human IgG in mouse serum is determined by plotting A450 values for the assay standard against human IgG concentration.
Representative compounds of the disclosure shown in Table 2 were formulated using the following molar ratio: 50% cationic lipid/10% distearoylphosphatidylcholine (DSPC)/38.5% Cholesterol/1.5% PEG lipid 2-[2-(ω-methoxy(polyethyleneglycol2000)ethoxy]-N,N-ditetradecylacetamide) or 47.5% cationic lipid/10% DSPC/40.7% Cholesterol/1.8% PEG lipid. Activity was determined by measuring luciferase expression in the liver 4 hours following administration via tail vein injection as described in Example 1 or by measuring the amount of human IgG in mouse serum as described in Example 2. The activity was compared at a dose of 1.0 or 0.5 or 0.3 mg mRNA/kg and expressed as ng luciferase/g liver measured 4 hours after administration, as described in Example 1 or as μg IgG/mL serum measured 24 hours after administration, as described in Example 2. Compound numbers in Table 2 refer to the compound numbers of Table 1.

Compound	pKa [1]	Serum IgG @ 0.3 mg/kg (human IgG in mouse serum) [µg/mL]	Serum IgG @ 1.0 mg/kg (human IgG in mouse serum) [µg/mL]
CCCCCCCCC(CCCCCC)COC(=O)CCCCCN(CCCCCC(=O)OCC(CCCCCC)CCCCCCCC)CCCN(C)CCCCC(=O)N(CCCCCC)CCCCCC (stereo not drawn) [Compound I-49, Bis(2-hexyldecyl) 6,6′-((3-((5-(dihexylamino)-5-oxopentyl)(methyl)amino)propyl)azanediyl)dihexanoate]	6.34	42.4 ± 11.7	120.6 ± 31.7
CCCCCCCCCCN(CCCCCCCCCC)C(=O)CCCCN(C)CCCCN(CCCCCCOC(=O)C(CCCCCC)CCCCCCCC)CCCCCCOC(=O)C(CCCCCC)CCCCCCCC (stereo not drawn) [Compound I-48, ((4-((5-(didecylamino)-5-oxopentyl)(methyl)amino)butyl)azanediyl)bis(hexane-6,1-diyl)bis(2-hexyldecanoate)]	6.37	4.4 ± 1.1	21.8 ± 5.0
CCCCCCCCC(CCCCCC)C(=O)OCCCCCCN(CCCCCCOC(=O)C(CCCCCC)CCCCCCCC)CCCCN(C)CCCCC(=O)N(CCCCCCCC)CCCCCCCC (stereo not drawn) [Compound I-51, ((4-((5-(dioctylamino)-5-oxopentyl)(methyl)amino)butyl)azanediyl)bis(hexane-6,1-diyl)bis(2-hexyldecanoate)]	6.4	31.9 ± 6.5	131.5 ± 18.1
CCCCCCCCC(CCCCCC)C(=O)OCCCCCCN(CCCCCCOC(=O)C(CCCCCC)CCCCCCCC)CCN(C)CCCC(=O)N(CC)CC (stereo not drawn) [Compound I-52, 6-((2-((3-(N,N-diethylcarbamoyl)propyl)-n-methylamino)ethyl)(6-(1-hexylnonylcarbonyloxy)hexyl)amino)hexyl 2-hexyldecanoate]	6.71	6.4 ± 2.6	35.4 ± 11.1
